One experiment addresses T1, cPLA2α (Homo sapiens, UniProt P47712).
T1 sequence (P47712 1-749): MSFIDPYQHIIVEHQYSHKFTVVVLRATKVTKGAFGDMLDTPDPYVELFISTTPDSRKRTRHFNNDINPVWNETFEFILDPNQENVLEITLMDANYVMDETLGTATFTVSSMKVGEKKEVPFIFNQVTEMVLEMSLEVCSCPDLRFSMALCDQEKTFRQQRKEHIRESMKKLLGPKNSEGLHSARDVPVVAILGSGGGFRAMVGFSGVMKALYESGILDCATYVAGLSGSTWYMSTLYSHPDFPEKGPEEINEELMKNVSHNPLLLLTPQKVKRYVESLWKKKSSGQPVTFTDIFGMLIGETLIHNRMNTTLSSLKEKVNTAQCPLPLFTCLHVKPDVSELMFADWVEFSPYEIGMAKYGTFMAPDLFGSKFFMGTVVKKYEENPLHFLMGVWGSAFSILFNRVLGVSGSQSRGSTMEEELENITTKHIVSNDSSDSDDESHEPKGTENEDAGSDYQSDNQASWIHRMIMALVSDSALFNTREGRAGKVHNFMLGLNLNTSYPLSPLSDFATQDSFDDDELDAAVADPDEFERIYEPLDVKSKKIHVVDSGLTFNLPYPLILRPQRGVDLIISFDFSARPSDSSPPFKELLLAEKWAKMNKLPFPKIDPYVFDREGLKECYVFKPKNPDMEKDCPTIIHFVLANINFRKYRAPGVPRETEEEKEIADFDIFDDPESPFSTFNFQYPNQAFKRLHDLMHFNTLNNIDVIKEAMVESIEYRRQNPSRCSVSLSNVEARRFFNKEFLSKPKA
Briefly: GLU Micelle Assay. In kind it is biochemical. The procedure:
The assay was carried in a 96-well format using a fluorescent plate reader with a 355 nm excitation filter and a 460 nm emission filter (Lab Systems Fluoroscan II, Helsinki, Finland). The assay buffer contained 940 μM Triton X-100, 50 mM Hepes pH 7.4, 0.3 mM EDTA, 1 mM CaCl2 and 300 mM KCl. DTPC (1,2-O-tetradecyl-sn-glycero-3-phosphocholine, Avanti) at a final concentration of 120 μM was added the day of the experiment and GLU (7-Hydroxycoumarinyl-γ-linolenate, Biomol Research Lab, Inc.) at a final concentration of 90 μM was added immediately prior to each assay.
Compounds (10 μL) dissolved in DMSO were placed in duplicate wells of a black 96-well plate. Wells corresponding to the positive and negative controls contained DMSO without inhibitors. Just prior to the experiment, 200 μL assay buffer containing 90 μM GLU and 120 μM DTPC was added to all wells in the assay plate. Assay buffer (50 μL) was added to the negative, and 50 μL cPLA2α solution ([…] in assay buffer) was added to all other wells to initiate the reaction. The final concentration of enzyme was 1 μg/ml. The content of each well was mixed gently during the addition of the enzyme, and the plate was rapidly transferred to the fluorescent plate reader. The increase in fluorescence was read every 4 min for 84 min. The slope of the resulting line was determined and the inhibition was calculated using the equation below: Percent Inhibition=[1−(slope with inhibitor−slope negative control)/(slope positive control−slope negative control)]×100 Rat Whole Blood Assay

In another experiment the test system is TXB2. Briefly: Rat Whole Blood Assay (A23187-stimulated TXB2). In kind it is cell-based. The following applies: A23187 5 μM. The procedure: Fresh blood was collected in heparinized tubes by cardiac puncture of male Sprague-Dawley rats. Aliquots of blood (0.6 mL) were incubated with either 6 μL solvent (DMSO), or 6 μL of test compounds at various concentrations for 15 minutes at 37° C. This was followed by incubation of the blood with 6 μL of calcium ionophore, A23187 (Sigma C-7522) diluted in DMSO for 10 min at 37° C. The final concentration of A23187 was 5 μM. DMSO (6 μL) was added in the unstimulated controls. The reactions were stopped by mixing 60 μL cold EDTA to give a final concentration of 20 mM. The blood was centrifuged at 6,500 rpm for 10 min on a microcentrifuge to obtain plasma. A 70 μL aliquot of plasma was mixed with 400 μL cold methanol for protein precipitation. After incubation at −80° C. for 30 min, the supernatant was obtained by centrifuging at 6,500 rpm for 10 min, and was assayed for TXB2 according to the manufacturer's procedure (Assay Designs, Inc.'s ELISA kit #900-002).

We go through ten molecules from patent US8283373B2, “Inhibitors of cytosolic phospholipase A2” (Pfizer Inc., priority 2005, dated 2012).

Take `O=C(O)c1ccc(CCCc2c(CCNS(=O)(=O)Cc3ccccc3Br)n(C(c3ccccc3)c3ccccc3)c3ccc(Cl)cc23)cc1` [Example 24, 4-{3-[2-(2-{[(2-bromobenzyl)sulfonyl]amino}ethyl)-5-chloro-1-(diphenylmethyl)-1H-indol-3-yl]propyl}benzoic acid]: the IC50 (in general, the concentration that inhibits the measured activity by half) is 8 nM on cPLA2α and 30 nM in the experiment on TXB2 (Rattus norvegicus).

As to `Cc1c(Cl)ccc(F)c1CS(=O)(=O)NCCc1c(CCCc2ccc(C(=O)O)cc2)c2cc(Cl)ccc2n1C(c1ccccc1)c1ccccc1` [Example 26], the IC50 worked out at 22 nM against cPLA2α and 30 nM in the experiment on TXB2.

Turning to `O=C(O)c1ccc(CCCc2c(CCNS(=O)(=O)Cc3c([N+](=O)[O-])cccc3C(F)(F)F)n(C(c3ccccc3)c3ccccc3)c3ccc(Cl)cc23)cc1` [Example 27, 4-(3-{5-chloro-1-(diphenylmethyl)-2-[2-({[2-nitro-6-(trifluoromethyl)benzyl]sulfonyl}amino)ethyl]-1H-indol-3-yl}propyl)benzoic acid], the values for the IC50 against cPLA2α and in the experiment on TXB2 (Rattus norvegicus) were 38 nM and 30 nM, respectively.

Consider `O=C(O)c1ccc(CCCc2c(CCNS(=O)(=O)Cc3ccccc3F)n(C(c3ccccc3)c3ccccc3)c3ccc(Cl)cc23)cc1` [Example 28, 4-{3-[5-chloro-1-(diphenylmethyl)-2-(2-{[(2-fluorobenzyl)sulfonyl]amino}ethyl)-1H-indol-3-yl]propyl}benzoic acid], for which the IC50 against cPLA2α and with TXB2 (Rattus norvegicus) was 30 nM in each case.

Regarding `O=C(O)c1ccc(CCCc2c(CCNS(=O)(=O)Cc3ccccc3-c3ccccc3)n(C(c3ccccc3)c3ccccc3)c3ccc(Cl)cc23)cc1` [Example 29, 4-{3-[2-(2-{[(biphenyl-2-ylmethyl)sulfonyl]amino}ethyl)-5-chloro-1-(diphenylmethyl)-1H-indol-3-yl]propyl}benzoic acid], the IC50 on cPLA2α was determined as 18 nM; in the experiment with TXB2 (Rattus norvegicus) it was 50 nM.

As to `O=C(O)c1ccc(CCCc2c(CCNS(=O)(=O)Cc3ccccc3-c3ccncc3)n(C(c3ccccc3)c3ccccc3)c3ccc(Cl)cc23)cc1` [Example 30, 4-{3-[5-chloro-1-(diphenylmethyl)-2-(2-{[(2-pyridin-4-ylbenzyl)sulfonyl]amino}ethyl)-1H-indol-3-yl]propyl}benzoic acid], the IC50 worked out at 21 nM against cPLA2α and 60 nM in the experiment on TXB2 (Rattus norvegicus).

`O=C(O)c1ccc(CCCc2c(CCNS(=O)(=O)Cc3ccccc3-c3cccnc3)n(C(c3ccccc3)c3ccccc3)c3ccc(Cl)cc23)cc1` [Example 31, 4-{3-[5-chloro-1-(diphenylmethyl)-2-(2-{[(2-pyridin-3-ylbenzyl)sulfonyl]amino}ethyl)-1H-indol-3-yl]propyl}benzoic acid]: the IC50 at cPLA2α turned out to be 16 nM; with TXB2 (Rattus norvegicus), 40 nM.

Regarding `O=C(O)c1ccc(CCCc2c(CCNS(=O)(=O)Cc3ccccc3-c3ccsc3)n(C(c3ccccc3)c3ccccc3)c3ccc(Cl)cc23)cc1` [Example 32, 4-(3-{5-chloro-1-(diphenylmethyl)-2-[2-({[2-(3-thienyl)benzyl]sulfonyl}amino)ethyl]-1H-indol-3-yl}propyl)benzoic acid], the IC50 against cPLA2α was 13 nM; in the experiment with TXB2 (Rattus norvegicus), 50 nM.

Take `Cc1noc(C)c1-c1ccccc1CS(=O)(=O)NCCc1c(CCCc2ccc(C(=O)O)cc2)c2cc(Cl)ccc2n1C(c1ccccc1)c1ccccc1` [Example 33, 4-{3-[5-chloro-2-[2-({[2-(3,5-dimethylisoxazol-4-yl)benzyl]sulfonyl}amino)ethyl]-1-(diphenylmethyl)-1H-indol-3-yl]propyl}benzoic acid]: the IC50 against cPLA2α was determined as 22 nM; in the experiment on TXB2 (Rattus norvegicus), 20 nM.

`CN(C)c1ccc(-c2ccccc2CS(=O)(=O)NCCc2c(CCCc3ccc(C(=O)O)cc3)c3cc(Cl)ccc3n2C(c2ccccc2)c2ccccc2)cc1` [Example 35, 4-{3-[5-chloro-2-{2-[({[4′-(dimethylamino)biphenyl-2-yl]methyl}sulfonyl)amino]ethyl}-1-(diphenylmethyl)-1H-indol-3-yl]propyl}benzoic acid]: the half-maximal inhibitory concentration (IC50) at cPLA2α is 27 nM; with TXB2 (Rattus norvegicus) it was 50 nM.
